In ChEMBL document CHEMBL1129028 (J Med Chem, 1996):
Each block holds one molecule with its values, some of them ahead of it.

Assays:
[1] = Partition coefficient; Kp = concentration of test compound in n-octanol/concentration of the test compound in phosphate buffer (pH 7.4); format: physicochemical
[2] = test system: Mus musculus; assay: Anticonvulsant activity in the subcutaneous metrazole (scMet) screen test expressed as the number of animals protected/ the number of animals tested; scMet at 300 mg/kg after 0.5 hrs; (0/1); format: functional
[3] = test system: Mus musculus; assay: Anticonvulsant activity in the maximal electroshock (MES) screen test expressed as the number of animals protected / the number of animals tested; MES at 100 mg/kg after 0.5 hrs; (2/3); format: functional
[4] = test system: Mus musculus; assay: Anticonvulsant activity in the maximal electroshock (MES) screen test expressed as the number of animals protected / the number of animals tested; MES at 100 mg/kg after 4 hrs; (2/3); format: functional
[5] = test system: Mus musculus; assay: Anticonvulsant activity in the maximal electroshock (MES) screen test expressed as the number of animals protected / the number of animals tested; MES at 300 mg/kg after 0.5 hrs; (1/1); format: functional
[6] = test system: Mus musculus; assay: Anticonvulsant activity in the subcutaneous metrazole (scMet) screen test expressed as the number of animals protected / the number of animals tested; scMet at 100 mg/kg after 0.5 hrs; (0/1); format: functional
[7] = test system: Mus musculus; assay: Anticonvulsant activity in the subcutaneous metrazole (scMet) screen test expressed as the number of animals protected / the number of animals tested; scMet at 100 mg/kg after 4 hrs; (0/1); format: functional
[8] = species: Cavia porcellus; assay: Calcium channel antagonist activity against carbachol-induced contractile response in guinea pig ileal longitudinal smooth muscle; format: functional
[9] = test system: Mus musculus; assay: Anticonvulsant activity in the subcutaneous metrazole (scMet) screen test expressed as the number of animals protected to the number of animals tested; scMet at 300 mg/kg; (0/1); format: functional
[10] = test system: Mus musculus; assay: Anticonvulsant activity in the subcutaneous metrazole (scMet) screen test expressed as the number of animals protected to the number of animals tested; scMet at 100 mg/kg after 0.5 hrs; (0/1); format: functional
[11] = test system: Mus musculus; assay: Anticonvulsant activity in the subcutaneous metrazole (scMet) screen test expressed as the number of animals protected to the number of animals tested; scMet at 100 mg/kg after 4 hrs; (0/1); format: functional
[12] = test system: Mus musculus; assay: Anticonvulsant activity in the maximal electroshock (MES) screen test expressed as the number of animals protected to the number of animals tested; MES at 300 mg/kg after 4 hrs; (1/1); format: functional
[13] = test system: Mus musculus; assay: Anticonvulsant activity in the maximal electroshock (MES) screen test expressed as the number of animals protected to the number of animals tested; MES at 100 mg/kg after 0.5 hrs; (0/3); format: functional
[14] = test system: Mus musculus; assay: Anticonvulsant activity in the maximal electroshock (MES) screen test expressed as the number of animals protected to the number of animals tested; MES at 100 mg/kg after 4 hrs; (1/3); format: functional
[15] = test system: Mus musculus; assay: Anticonvulsant activity in the maximal electroshock (MES) screen test expressed as the number of animals protected to the number of animals tested; MES at 300 mg/kg after 0.5 hrs; (0/1); format: functional
[16] = test system: Mus musculus; assay: Anticonvulsant activity in the subcutaneous metrazole (scMet) screen test expressed as the number of animals protected to the number of animals tested; scMet at 100 mg/kg after 0.5 hrs; (1/1); format: functional
[17] = test system: Mus musculus; assay: Anticonvulsant activity in the maximal electroshock (MES) screen test expressed as the number of animals protected to the number of animals tested; MES at 100 mg/kg after 0.5 hrs; (2/2); format: functional
[18] = test system: Mus musculus; assay: Anticonvulsant activity in the subcutaneous metrazole (scMet) screen test expressed as the number of animals protected the number of animals tested; scMet at 100 mg/kg after 0.5 hrs; (0/1); format: functional
[19] = test system: Mus musculus; assay: Anticonvulsant activity in the subcutaneous metrazole (scMet) screen test expressed as the number of animals protected the number of animals tested; scMet at 100 mg/kg after 4 hrs; (0/1); format: functional
[20] = test system: Mus musculus; assay: Anticonvulsant activity in the subcutaneous metrazole (scMet) screen test expressed as the number of animals protected the number of animals tested; scMet at 300 mg/kg after 0.5 hrs; (0/1); format: functional
[21] = test system: Mus musculus; assay: Anticonvulsant activity in the subcutaneous metrazole (scMet) screen test expressed as the number of animals protected the number of animals tested; scMet at 300 mg/kg after 4 hrs; (0/1); format: functional
[22] = test system: Mus musculus; assay: Anticonvulsant activity in the maximal electroshock (MES) screen test expressed as the number of animals protected the number of animals tested; MES at 100 mg/kg after 0.5 hrs; (0/3); format: functional
[23] = test system: Mus musculus; assay: Anticonvulsant activity in the maximal electroshock (MES) screen test expressed as the number of animals protected the number of animals tested; MES at 100 mg/kg after 4 hrs; (1/3); format: functional
[24] = test system: Mus musculus; assay: Anticonvulsant activity in the maximal electroshock (MES) screen test expressed as the number of animals protected the number of animals tested; MES at 300 mg/kg after 0.5 hrs; (0/1); format: functional
[25] = test system: Mus musculus; assay: Anticonvulsant activity in the maximal electroshock (MES) screen test expressed as the number of animals protected the number of animals tested; MES at 300 mg/kg after 4 hrs; (1/1); format: functional

Kp [1]: 442
SMILES: CCOC(=O)C1=C(C)NC(C)=C(C(=O)OC)C1c1cccc(Cl)c1Cl (stereo unspecified) [FELODIPINE]
No. of animals protected / no animals tested [2]: 0 | No. of animals protected / no animals tested [3]: 2 | No. of animals protected / no animals tested [4]: 2 | No. of animals protected / no animals tested [5]: 1 | No. of animals protected / no animals tested [6]: 0 | No. of animals protected / no animals tested [7]: 0

Kp [1]: 187 | IC50 [8]: 0.0149 µM
SMILES: COCCOC(=O)C1=C(C)NC(C)=C(C(=O)OC(C)C)C1c1cccc([N+](=O)[O-])c1 (stereo unspecified) [NIMODIPINE]
No. of animals protected / no animals tested [9]: 0 300mg kg-1 | No. of animals protected / no animals tested [10]: 0 100mg kg-1 | No. of animals protected / no animals tested [11]: 0 100mg kg-1 | No. of animals protected / no animals tested [12]: 1 300mg kg-1 | No. of animals protected / no animals tested [13]: 0 100mg kg-1 | No. of animals protected / no animals tested [14]: 1 100mg kg-1 | No. of animals protected / no animals tested [15]: 0 300mg kg-1

Kp [1]: 236 | IC50 [8]: 0.0304 µM
SMILES: CO/C(O)=C1\C(C)=NC(C)=C(C(=O)OCCO)C1c1cccc(Cl)c1Cl (stereo unspecified)
No. of animals protected / no animals tested [16]: 1 | No. of animals protected / no animals tested [11]: 0 | No. of animals protected / no animals tested [17]: 2

Kp [1]: 366 | IC50 [8]: 0.031 µM
SMILES: CO/C(O)=C1\C(C)=NC(C)=C(C(=O)OCCOC(=O)C2=CN(C)C=CC2)C1c1cccc(Cl)c1Cl (stereo unspecified)
No. of animals protected / no animals tested [18]: 0 | No. of animals protected / no animals tested [19]: 0 | No. of animals protected / no animals tested [20]: 0 | No. of animals protected / no animals tested [21]: 0 | No. of animals protected / no animals tested [22]: 0 | No. of animals protected / no animals tested [23]: 1 | No. of animals protected / no animals tested [24]: 0 | No. of animals protected / no animals tested [25]: 1
